Measurements as given in patent US12370192B2, “Azole-fused pyridazin-3(2H)-one derivatives” (TAKEDA PHARMACEUTICAL COMPANY LIMITED, priority 2019, dated 2025).

Tests used:
[1] = biological target: T1, human GPR139 receptor (Homo sapiens, UniProt Q6DWJ6); test: GPR139 Competition Binding (membrane-based, tritium-labeled ligand); details: T-REx-CHO membranes with human GPR139; 6.5 nM tritium-labeled ligand; 11-point curve, 30 μM maximum concentration; read-out: GPR139 Binding Affinity (pKi) (converted)
T1 construct: expressed in transfected cells; host or cells: T-REx-CHO (Thermo Fisher Scientific), doxycycline-induced
T1 sequence (Q6DWJ6 1-353): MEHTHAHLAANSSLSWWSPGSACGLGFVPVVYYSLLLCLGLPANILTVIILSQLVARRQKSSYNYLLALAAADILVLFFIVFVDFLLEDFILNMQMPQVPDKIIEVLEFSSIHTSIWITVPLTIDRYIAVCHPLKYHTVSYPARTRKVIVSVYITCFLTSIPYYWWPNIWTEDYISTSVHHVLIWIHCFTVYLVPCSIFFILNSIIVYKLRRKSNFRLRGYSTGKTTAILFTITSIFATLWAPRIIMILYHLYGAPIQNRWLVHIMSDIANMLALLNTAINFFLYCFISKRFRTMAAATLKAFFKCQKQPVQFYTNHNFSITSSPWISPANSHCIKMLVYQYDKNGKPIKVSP
Outline: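 Membranes came from doxycycline-induced T-REx-CHO cells expressing human GPR139. They were incubated 20 min at room temperature with 6.5 nM tritiated ligand and compound (11 points, top 30 μM) in HEPES pH 7.3 buffer with MgCl2/CaCl2. Filter-bound counts gave Ki by four-parameter fit, reported as pKi.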

[2] = biological target: T1, human GPR139 receptor; test: Measurement of GPR139 Activation Via Calcium Signaling (FLIPR, T-REx-CHO cells); assay type: cell-based; details: T-REx-CHO cells stably expressing human GPR139, 11-point dose response, 10 μM maximum concentration, read-out: GPR139 Potency (pEC50) (converted)
Outline: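 T-REx-CHO cells stably carrying human GPR139 under tetracycline control, induced with 2 μg/mL doxycycline for 17 h at 37 °C, loaded 40 min with Calcium 5 dye plus probenecid in HBSS/HEPES pH 7.4. Agonist added as 11-point series (10 μM top); fluorescence read 1 min; pEC50 from four-parameter fit.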

Row | Structure (SMILES) | Ki [1] [nM] | EC50 [2] [nM]
1 | COc1ccc([C@H](C)NC(=O)Cn2ncc3c(c(C)nn3C3CC3)c2=O)cc1F [Example 129, (S)-2-(1-cyclopropyl-3-methyl-4-oxo-1,4-dihydro-5H-pyrazolo[3,4-d]pyridazin-5-yl)-N-(1-(3-fluoro-4-methoxyphenyl)ethyl)acetamide] | 724 | 53.7
2 | Cc1ccc([C@H](C)NC(=O)Cn2nc(C)c3cnn(C)c3c2=O)cc1 [Example 39, (S)-2-(1,4-dimethyl-7-oxo-1,7-dihydro-6-pyrazolo[3,4-d]pyridazin-6-yl)-N-(1-(p-totyl)ethyl)acetamide] | 229 | 36.3
3 | [2H]C([2H])([2H])c1ccc([C@H](C)NC(=O)Cn2ncc3ccn(C)c3c2=O)cc1 [Example 174, (S)-2-(1-methyl-7-oxo-1,7-dihydro-6H-pyrrolo[2,3-d]pyridazin-1-yl)-N-(1-(4-(methyl-d3)phenyl)ethyl)acetamide] | 234 | 17.8
4 | Cc1cc(Cl)ccc1[C@H](C)NC(=O)Cn1ncc2c(c(C)cn2C2CC2)c1=O [Example 63, (S)—N-(1-(4-chloro-2-methylphenyl)ethyl)-2-(1-cyclopropyl-3-methyl-4-oxo-1,4-dihydro-5H-pyrrolo[2,3-d]pyridazin-5-yl)acetamide] | 2 | 85.1
5 | Cc1ccc([C@H](C)NC(=O)Cn2ncc3c(cnn3C)c2=O)c(F)c1 [Example 35, (S)—N-(1-(2-fluoro-4-methylphenyl)ethyl)-2-(1-methyl-4-oxo-1,4-dihydro-5H-pyrazolo[3,4-d]pyridazin-5-yl)acetamide] | 1020 | 79.4
6 | Cc1ccc([C@H](C)NC(=O)Cn2nc(C)c3c(c(C4CC4)nn3C)c2=O)cc1 [Example 119, (S)-2-(3-cyclopropyl-1,7-dimethyl-4-oxo-1,4-dihydro-5H-pyrazolo[3,4-d]pyridazin-5-yl)-N-(1-(p-tolyl)ethyl)acetamide] | 7.94 | 33.9
7 | Cc1nn(C(C)C)c2cnn(CC(=O)N[C@@H](C)c3ccc(C(F)(F)F)cc3)c(=O)c12 [Example 94, (S)-2-(1-isopropyl-3-methyl-4-oxo-1,4-dihydro-5H-pyrazolo[3,4-d]pyridazin-5-yl)-N-(1-(4-(trifluoromethyl)phenyl)ethyl)acetamide] | 309 | 107
8 | CC(C)c1nn(CC(=O)N[C@@H](C)c2ccc(C(F)(F)F)cc2)c(=O)c2c1cnn2-c1ccccc1 [Example 4, (S)-2-(4-isopropyl-7-oxo-1-phenyl-1,7-dihydro-6H-pyrazolo[3,4-d]pyridazin-6-yl)-N-(1-(4-(trifluoromethyl)phenyl)ethyl)acetamide] | 91.2 | ≥ 10000
9 | Cc1nn(C(C)C)c2cnn(CC(=O)N[C@@H](C)c3ccc(OC(F)(F)F)cc3)c(=O)c12 [Example 93, (S)-2-(1-isopropyl-3-methyl-4-oxo-1,4-dihydro-5H-pyrazolo[3,4-d]pyridazin-5-yl)-N-(1-(4-(trifluoromethoxy)phenyl)ethyl)acetamide] | 389 | 234
10 | Cc1cc(C)c([C@H](C)NC(=O)Cn2nc(C)c3c(C)nn(C4CC4)c3c2=O)c(C)c1 [Example 70, (S)-2-(1-cyclopropyl-3,4-dimethyl-7-oxo-1,7-dihydro-6H-pyrazolo[3,4-d]pyridazin-6-yl)-N-(1-mesitylethyl)acetamide] | 0.759 | 178
11 | COc1ccc([C@H](C)NC(=O)Cn2ncc3c(c(C4CC4)nn3C(C)C)c2=O)cc1 [Example 18, (S)-2-(3-cyclopropyl-1-isopropyl-4-oxo-1,4-dihydro-5H-pyrazolo[3,4-d]pyridazin-5-yl)-N-(1-(4-methoxyphenyl)ethyl)acetamide] | 355 | 170
